Laboratory results taken from US12521356B2, “Compositions and methods for treating pain, inflammation, infection, malaria, and sepsis” (Duke University, priority 2018, dated 2026).

Columns and labels:
GPR37 = biological target: T1, GPR37 (Homo sapiens, UniProt O15354); experiment: Ca2+ imaging (Fura-2AM) in HEK293 cells transfected with human GPR37 cDNA; format: cell-based; details: GPR37-expressing HEK293 cells; for intracellular Ca2+ (iCa2+) increase: 3 min
T1 construct: host or cells: HEK293 flip-in cells
T1 sequence (O15354 27-613): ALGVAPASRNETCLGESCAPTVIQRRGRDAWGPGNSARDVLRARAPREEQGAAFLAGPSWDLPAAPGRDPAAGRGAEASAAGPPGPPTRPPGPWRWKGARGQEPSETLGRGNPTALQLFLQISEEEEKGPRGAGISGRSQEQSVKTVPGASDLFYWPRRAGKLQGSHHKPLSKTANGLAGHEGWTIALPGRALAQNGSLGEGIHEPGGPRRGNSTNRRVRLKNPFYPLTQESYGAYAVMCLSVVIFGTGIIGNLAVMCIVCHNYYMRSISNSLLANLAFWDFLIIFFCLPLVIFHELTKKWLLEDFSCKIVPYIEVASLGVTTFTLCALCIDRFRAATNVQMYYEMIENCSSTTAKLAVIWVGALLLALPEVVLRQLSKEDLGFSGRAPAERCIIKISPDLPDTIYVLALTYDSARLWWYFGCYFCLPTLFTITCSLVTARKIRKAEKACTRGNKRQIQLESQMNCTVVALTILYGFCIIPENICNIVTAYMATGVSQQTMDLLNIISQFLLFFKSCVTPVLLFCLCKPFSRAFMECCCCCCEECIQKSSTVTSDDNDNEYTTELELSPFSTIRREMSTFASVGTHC
Procedure: HEK cell culture and transfection. HEK293 flip-in cell line was purchased from Duke Cell Culture Facility. Cells were cultured in high glucose (4.5 g/L) Dulbecco's Modified Eagle's Medium containing 10% (v/v) fetal bovine serum (Gibco). Transfection (2 μg cDNA) was performed with Lonza electroporation (Lonza) at 70% confluency and the transfected cells were cultured in the same growth medium for 48 h before use. The hGPR37-V5 pLenti304 plasmids were obtained from DNASU (Tempe, AZ), and hGPR32, hChemR23 and hALX pcDNA3 plasmids were provided by Dr. Serhan from Harvard Medical School, Boston.
Calcium imaging. HEK 293 cells, with or without transfection of Gpr37, GPR32, ChemR23 or ALX1 cDNA, were loaded with 5 μM Fura-2AM (Invitrogen) for 1 hour and then were resuspended in normal external buffer (140 NaCl, 5 KCl, 2 CaCl2, 2 MgCl2, 10 HEPES, in mM, titrated to pH 7.4 with NaOH) or external Ca^2+-free buffer (140 NaCl, 2 MgCl2, 5 EGTA, 10 HEPES, in mM, titrated to pH 7.4 with NaOH). Peritoneal macrophages, collected from WT and Gpr37 KO mice, were loaded with 5 μM […] (Invitrogen) for 1 hour and then were resuspended in normal external buffer. Images of the HEK 293 cells and macrophages with the excitation wavelength of 340 nm and 380 nm were captured with a cooled Digital CMOS camera (ORCA-Flash 4.0, Hamamatsu Photonics K.K, Japan). The ratio of fluorescence intensity of the two wavelengths in each experiment was analyzed using MetaFluor (Molecular Devices). The Shutter speed and wavelength was controlled by Lambda DG-4 system (Sutter instrument Co., Novato, CA). Values from each of the experiments were normalized to the baseline ratio of 340/380 nm.
In order to investigate how GPR37 regulates intracellular signaling, we conducted Ca^2+ imaging in HEK293 cells that overexpress GPR37. […] Thus, we hypothesized TX14 and SPM may activate the same receptors and elicit similar intracellular responses. We transfected HEK293 cells with human GPR37 cDNA, loaded these cells with Ca^2+ dye Fura-2AM, and stimulated them with TX14 and various SPMs, using ionomycin (2 μM) as a positive control for Ca^2+ influx (FIG. 2A, FIG. 2B, FIG. 2C).

[1] = tested on: peritoneal macrophages (pMΦ); experiment: Phagocytosis assay with fluorescence-labeled zymosan particles in peritoneal macrophages; format: cell-based, mouse; details: for MΦ phagocytosis: pMΦ
Procedure: Peritoneal macrophage culture. Peritoneal macrophages were collected by peritoneal lavage with 10 ml warm PBS containing of 1 mM EDTA. Cells were incubated in DMEM supplemented with 10% FBS at 37° C. for 2 h in petri dish and washed with PBS to eliminate non-adherent cells. The adherent cells were used as peritoneal macrophages. Peritoneal macrophages were used after 3 days of culture.
Phagocytosis assay. The phagocytosis assay was modified from a previously described protocol (Sommer C, and Kress M. NeurosciLett. 2004, 361, 184-187). pHrodo® Red Zymosan Bioparticles (diameter, 3 μm, Thermo scientific, Catalog: P35364) were rinsed and reconstituted in RPMI medium. Particles were centrifuged (1 min at 100 g) onto adherent peritoneal macrophages at a ratio of 10:1 to synchronize binding and internalization. After 30 min incubation at 37° C., non-adherent beads were removed with cold PBS and cells were fixed with 2% formalin. Four optic fields were photographed with epifluorescence microscopy. Quantification of zymosan particles ingested by MΦ was conducted on at least 200 macrophages/condition/well, and triplicates were included for statistical analysis.
We investigated whether iCa^2+ increases would trigger phagocytosis of pathogens such as zymosan by macrophages. Zymosan is a well-studied pathogen and activates TLR2 to trigger inflammation and inflammatory pain in rodents after intraplantar injection. We tested phagocytosis in pMΦ using fluorescence-labeled zymosan particles.

Compound	intracellular Ca2+ (iCa2+) increase (GPR37; 30 nM)	EC50 (GPR37; dose response, read-out: EC50 of iCa2+ increase) [nM]	NPD1-evoked increases in phagocytic activity ([1]; Gpr37-deficient MΦ)	percentage of pMΦ showing the phagocytosis of zymosan particles ([1]; wild-type pMΦ)	phagocytic activity (zymosan particles in pMΦ) ([1]; wild-type pMΦ, 30 nM for 30 min)	intracellular Ca2+ (iCa2+) increase (GPR37; 100 nM)	MΦ phagocytosis [1]
CC/C=C\C[C@H](O)\C=C/C=C/C=C/[C@H](O)C/C=C\C/C=C\CCC(=O)O [NPD1, neuroprotectin D1]	elicited significant increases	26	abolished	increased	dose-dependent increase in phagocytic activity	–	–
CC/C=C\C[C@H](O)/C=C/C=C\C=C\C=C\[C@@H](O)[C@@H](O)C/C=C\CCC(=O)O [RvD1]	–	–	–	–	–	failed to increase iCa^2+	induced
CC[C@@H](O)/C=C/C=C\C[C@@H](O)/C=C/C=C/C=C\[C@@H](O)CCCC(=O)O [RvE1]	–	–	–	–	–	failed to increase iCa^2+	induced
